Drawing on PubChem BioAssay (NCI), this text covers GI50 and TGI for twelve compounds.

Each structure is given as a SMILES string.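 1) Cells in 96-well plates. 2) Compound, 48 h, 5 concentrations. 3) Linear interpolation between surrounding doses. 4) Unreached endpoint = highest concentration. GI50 is the concentration that inhibits growth by half. TGI is the concentration that stops growth completely.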

Test systems include HCC-2998 colon; HCT-15 colon; HL-60(TB) leukemia; K-562 leukemia; MALME-3M melanoma; NCI-H522 lung; SN12C renal; SR leukemia; U251 CNS; SNB-19 CNS.
Holding throughout (experiment): DTP human tumour cell line panel, 48 h

For `O=C(/C=C/c1ccc(C(F)(F)F)cc1)c1ccc(Nc2nc(NCCO)nc(N3CCOCC3)n2)cc1`, the GI50 in the assay on HCC-2998 colon was 2.34 µM; with HCT-15 colon, 1.89 µM; with HL-60(TB) leukemia, 2.92 µM; in the assay with K-562 leukemia it was 2.33 µM; in the assay with MALME-3M melanoma, 2.91 µM; in the assay on NCI-H522 lung, 1.85 µM. Also, the GI50 is 2.22 µM in the assay with SN12C renal, 3.1 µM in the assay on SR leukemia and 1.63 µM with U251 CNS. Moreover, the TGI was 5.7 µM in the assay with HCC-2998 colon; 4.82 µM in the assay on HCT-15 colon; 8.64 µM with HL-60(TB) leukemia; greater than 100 µM in the assay on K-562 leukemia; 10.2 µM in the assay on MALME-3M melanoma; 5.04 µM with NCI-H522 lung. Besides, the TGI with SN12C renal was 5.69 µM; in the assay on SR leukemia it was greater than 100 µM; with U251 CNS, 3.38 µM.
Regarding `COC(=O)c1cc2oc(/C=C3\SC(=S)N(NC(C)=O)C3=O)cc2n1Cc1ccccc1`, the GI50 is 1.54 µM with HCT-15 colon; 2.14 µM with HL-60(TB) leukemia; 1.08 µM with K-562 leukemia; greater than 50 µM in the assay on NCI-H522 lung; 11.3 µM with SN12C renal; 6.8 µM in the assay on SNB-19 CNS. In addition, the values for the GI50 in the assay on SR leukemia and in the assay on U251 CNS were 1.11 µM and 1.37 µM, respectively. The TGI in the assay with HCT-15 colon was 8.56 µM; in the assay on HL-60(TB) leukemia, 13.8 µM; in the assay on K-562 leukemia it was greater than 50 µM; in the assay with NCI-H522 lung, greater than 50 µM; with SN12C renal, 20.8 µM; in the assay with SNB-19 CNS, 21.2 µM. For the same compound, the TGI with SR leukemia was greater than 50 µM; in the assay on U251 CNS, 4.49 µM.
Turning to `CSC1C(=O)c2ccccc2/C(=N/Nc2nc3ccccc3s2)C1C` (configuration not stated), the GI50 with HCT-15 colon was 7.58 µM; with HL-60(TB) leukemia, 2.14 µM; in the assay on K-562 leukemia, 1.7 µM; with NCI-H522 lung, 6.95 µM; in the assay with SN12C renal, 7.26 µM; in the assay with SNB-19 CNS, 19.9 µM. Further, the GI50 was 0.843 µM in the assay on SR leukemia and 7.66 µM in the assay with U251 CNS. In addition, the TGI in the assay on HCT-15 colon is 15.8 µM; in the assay on HL-60(TB) leukemia it was 43 µM; in the assay with K-562 leukemia it was 4.55 µM; in the assay with NCI-H522 lung, 26.3 µM; in the assay on SN12C renal it was 14.2 µM; in the assay with SNB-19 CNS, greater than 50 µM. In addition, the results for the TGI in the assay with SR leukemia and in the assay with U251 CNS were 2.52 µM and 15.6 µM, respectively.
As for `COc1cc(C(=O)CC2(O)C(=O)Nc3c(Cl)cc(Cl)cc32)ccc1O` (configuration not stated), the TGI was 88.7 µM in the assay on HCC-2998 colon; greater than 100 µM in the assay with HCT-15 colon; greater than 100 µM with HL-60(TB) leukemia; greater than 100 µM in the assay on K-562 leukemia; greater than 100 µM with MALME-3M melanoma; greater than 100 µM in the assay on NCI-H522 lung. The TGI with SN12C renal, in the assay with SNB-19 CNS and in the assay with U251 CNS was greater than 100 µM each time.
With `C[C@@H]1C[C@@]2(O[C@@H]2C)C(=O)O[C@@H]2CCN3CC=C(COC(=O)[C@]1(C)O)[C@H]23`, the TGI in the assay on HCC-2998 colon, with HCT-15 colon, in the assay with HL-60(TB) leukemia, in the assay with K-562 leukemia, in the assay with MALME-3M melanoma and in the assay on NCI-H522 lung was greater than 100 µM each time. Besides, the TGI in the assay on SN12C renal, with SNB-19 CNS and with U251 CNS was greater than 100 µM each time.
On to `CC1(C)C2C/C(=C\c3ccccc3)C(=O)C1C2` (configuration not stated), for which the total growth inhibition concentration (TGI) in the assay with HCC-2998 colon, with HCT-15 colon, in the assay with HL-60(TB) leukemia, in the assay on K-562 leukemia, with MALME-3M melanoma and with NCI-H522 lung was greater than 100 µM throughout. The TGI in the assay with SN12C renal, in the assay with SNB-19 CNS and in the assay with U251 CNS was greater than 100 µM throughout.
`O=C(NCP(=O)(O)O)c1cccnc1`: the TGI in the assay on HCT-15 colon, in the assay on HL-60(TB) leukemia, in the assay on K-562 leukemia, in the assay with SN12C renal, in the assay with SNB-19 CNS and in the assay with SR leukemia was greater than 100 µM each time. Besides, the TGI in the assay with U251 CNS was greater than 100 µM.
For the compound `NC(CCSC(F)F)C(=O)O` (configuration not stated), the TGI with HCC-2998 colon, in the assay on K-562 leukemia, in the assay on MALME-3M melanoma, in the assay with NCI-H522 lung, with SN12C renal and in the assay with SNB-19 CNS was greater than 100 µM in each case. Besides, the TGI with SR leukemia and with U251 CNS was greater than 100 µM each time.
For `O=C1C[C@H]2CC3(CC[C@H]2CN1)OCCO3`, the TGI in the assay on HCC-2998 colon, in the assay with HCT-15 colon, in the assay with HL-60(TB) leukemia, in the assay with K-562 leukemia, in the assay on MALME-3M melanoma and with NCI-H522 lung was greater than 100 µM each time. The TGI in the assay with SN12C renal, with SNB-19 CNS and in the assay on U251 CNS was greater than 100 µM each time.
On to `Cc1cccc2c1C/C(=C1\CCc3c(C)cccc31)C2=O`, for which the TGI with HCC-2998 colon, in the assay on HCT-15 colon, in the assay on HL-60(TB) leukemia, with K-562 leukemia, in the assay on MALME-3M melanoma and in the assay with SN12C renal was greater than 100 µM throughout. Moreover, the TGI in the assay with SNB-19 CNS, in the assay with SR leukemia and in the assay on U251 CNS was greater than 100 µM throughout.
As to `C/C(=C\CC[C@]1(C)OC(C)(C)OC1CC/C(C)=C/CO[Si](c1ccccc1)(c1ccccc1)C(C)(C)C)CC/C=C/CO[Si](C)(C)C(C)(C)C` (some centres not stated), the TGI with HCC-2998 colon, with HCT-15 colon, in the assay with HL-60(TB) leukemia, in the assay on K-562 leukemia, in the assay on MALME-3M melanoma and with NCI-H522 lung was greater than 100 µM in each case. The TGI with SN12C renal, with SNB-19 CNS and in the assay with U251 CNS was greater than 100 µM throughout.
As for `O=C1/C(=C/c2ccc(Cl)cc2)COc2ccc(O)c(O)c21`, the GI50 with HCC-2998 colon was 1.51 µM; in the assay with HCT-15 colon it was 0.356 µM; with HL-60(TB) leukemia, 0.28 µM; in the assay on K-562 leukemia, 0.321 µM; with MALME-3M melanoma it was 1.47 µM; in the assay on NCI-H522 lung, 0.182 µM. Also, the figures for the GI50 in the assay on SN12C renal, with SNB-19 CNS and in the assay on U251 CNS were 0.724 µM, 1.43 µM and 0.731 µM, respectively. The TGI in the assay with HCC-2998 colon was 2.96 µM; with HCT-15 colon, 4.18 µM; in the assay on HL-60(TB) leukemia it was 0.827 µM; with K-562 leukemia it was greater than 100 µM; in the assay on MALME-3M melanoma it was 3.47 µM; in the assay on NCI-H522 lung, 0.426 µM. In addition, the TGI in the assay on SN12C renal came out at 2.57 µM; in the assay with SNB-19 CNS it was 2.95 µM; with U251 CNS, 2.06 µM.

The term GI50 denotes the concentration that inhibits growth by half. In general, TGI refers to the concentration at which net growth stops. A higher TGI goes with less potent growth arrest.
